Source: ChEMBL document CHEMBL3632528 (J Nat Prod, 2015)

What was measured:
Liver carboxylesterase 1 = target: T1, Liver carboxylesterase 1 (Homo sapiens, UniProt P23141); experiment: Inhibition of human carboxylesterase 1 using 2-(2'-benzoyl-3'-methoxylphenyl)-benzothiazole as substrate at 0.1 to 200 uM by fluorescence assay
T1 sequence (P23141 whole entry): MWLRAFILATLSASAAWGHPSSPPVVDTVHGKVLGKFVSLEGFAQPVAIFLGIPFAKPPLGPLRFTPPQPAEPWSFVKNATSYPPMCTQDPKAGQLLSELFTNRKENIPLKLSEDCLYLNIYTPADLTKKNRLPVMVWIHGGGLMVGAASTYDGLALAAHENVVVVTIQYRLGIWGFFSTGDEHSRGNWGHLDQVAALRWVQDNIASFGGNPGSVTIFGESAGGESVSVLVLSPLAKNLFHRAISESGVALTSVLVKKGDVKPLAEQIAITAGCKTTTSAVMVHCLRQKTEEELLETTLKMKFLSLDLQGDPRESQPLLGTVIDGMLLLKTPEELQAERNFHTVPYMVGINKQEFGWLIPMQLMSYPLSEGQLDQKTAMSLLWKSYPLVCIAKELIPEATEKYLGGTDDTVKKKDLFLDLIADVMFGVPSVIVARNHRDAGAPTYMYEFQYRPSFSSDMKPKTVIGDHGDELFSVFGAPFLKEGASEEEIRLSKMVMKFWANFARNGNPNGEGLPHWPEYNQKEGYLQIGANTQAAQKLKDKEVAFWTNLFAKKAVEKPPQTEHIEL

Cocaine esterase [1] = target: T2, Cocaine esterase (Homo sapiens, UniProt O00748); experiment: Inhibition of human carboxylesterase 2 using 4-benzoyl-N-butyl-1,8-naphthalimide as substrate by fluorescence assay
T2 sequence (O00748 whole entry): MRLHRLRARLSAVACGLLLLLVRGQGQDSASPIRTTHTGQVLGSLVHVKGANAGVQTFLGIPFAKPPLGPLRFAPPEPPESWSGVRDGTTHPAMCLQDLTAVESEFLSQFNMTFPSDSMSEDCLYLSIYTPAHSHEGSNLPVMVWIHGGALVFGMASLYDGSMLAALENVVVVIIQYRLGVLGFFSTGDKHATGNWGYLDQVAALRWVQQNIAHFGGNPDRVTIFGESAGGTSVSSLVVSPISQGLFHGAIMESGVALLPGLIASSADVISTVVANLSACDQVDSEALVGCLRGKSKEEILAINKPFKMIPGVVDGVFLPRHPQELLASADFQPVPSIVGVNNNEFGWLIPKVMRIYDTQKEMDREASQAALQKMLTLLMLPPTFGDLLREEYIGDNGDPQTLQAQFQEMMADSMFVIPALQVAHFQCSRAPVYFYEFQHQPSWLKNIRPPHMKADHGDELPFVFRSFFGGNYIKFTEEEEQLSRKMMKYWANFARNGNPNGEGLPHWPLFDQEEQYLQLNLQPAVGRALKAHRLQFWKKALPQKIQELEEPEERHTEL

Cocaine esterase [2] = target: T2, Cocaine esterase; experiment: […] inhibition of human carboxylesterase 2 using 4-benzoyl-N-butyl-1,8-naphthalimide as substrate by Dixon and Lineweaver-Burk plot analysis

Row | inhibition (INH) (Liver carboxylesterase 1) | IC50 (Cocaine esterase [1]) [µM] | Ki (Cocaine esterase [2]) [µM] | SMILES
1 | Not Active | – | – | CC(=O)C1=C2C=C[C@H]3[C@@]4(C)CCC(=O)C(C)(C)[C@@H]4CC[C@]3(C)[C@@]2(C)CC1=O
2 | Not Active | 8.68 | – | C=C(C)[C@@H](O)[C@@H](O)C[C@@H](C)C1=C2C=C[C@H]3[C@@]4(C)CCC(=O)C(C)(C)[C@@H]4CC[C@]3(C)[C@@]2(C)CC1=O
3 | Not Active | 20.9 | – | C[C@H](C[C@H](O)[C@@H](O)C(C)(C)O)C1=C2C[C@@H]3OC(=O)C[C@@]4(C)[C@H](C(C)(C)C(=O)O)CC[C@@](C)([C@@H]34)[C@@]2(C)CC1
4 | Not Active | – | – | C[C@H](CC(=O)[C@H](O)C(C)(C)O)C1=C2C=C[C@H]3[C@@]4(C)CCC(=O)C(C)(C)[C@@H]4CC[C@]3(C)[C@@]2(C)CC1=O
5 | Not Active | – | – | C=C(C)[C@H](O)[C@@H]1C[C@@H](C)C2=C3C[C@H](O)[C@H]4[C@@]5(C)CCC(=O)C(C)(C)[C@@H]5CC[C@]4(C)[C@@]3(C)C[C@@H]2O1
6 | Not Active | – | – | C[C@@H]1CC(=O)[C@@H](C(C)(C)O)O[C@H]2C[C@@]3(C)C(=C12)C=C[C@H]1[C@@]2(C)CCC(=O)C(C)(C)[C@@H]2CC[C@@]13C
7 | Not Active | – | – | C[C@H](C[C@H](O)[C@@H](O)C(C)(C)O)C1=C2C[C@H](O)[C@H]3[C@@]4(C)CCC(=O)C(C)(C)[C@@H]4CC[C@]3(C)[C@@]2(C)CC1 [ALISOL A]
8 | Not Active | – | – | C[C@@H]1C[C@@H]([C@@H](O)C(C)(C)O)O[C@H]2C[C@@]3(C)C(=C12)C=C[C@H]1[C@@]2(C)CCC(=O)C(C)(C)[C@@H]2CC[C@@]13C
9 | Not Active | – | – | C[C@H](C[C@H](O)[C@H](O)C(C)(C)O)C1=C2C=C[C@H]3[C@@]4(C)CCC(=O)C(C)(C)[C@@H]4CC(=O)[C@]3(C)[C@@]2(C)CC1=O
10 | Not Active | – | – | CC1(C)O[C@@H]1[C@@H](O)C[C@](C)(O)C1=C2C[C@H](O)[C@H]3[C@@]4(C)CCC(=O)C(C)(C)[C@@H]4CC[C@]3(C)[C@@]2(C)CC1=O
11 | Not Active | – | – | C=C(C)[C@@H](O)[C@@H](O)C[C@@H](C)C1=C2CC[C@H]3[C@@]4(C)CCC(=O)C(C)(C)[C@@H]4CC[C@]3(C)[C@@]2(C)CC1
12 | Not Active | – | – | C[C@H](C[C@H](O)[C@H](O)C(C)(C)O)C1=C2C=C[C@H]3[C@@]4(C)CCC(=O)C(C)(C)[C@@H]4CC[C@]3(C)[C@@]2(C)CC1=O
13 | Not Active | 4.63 | – | C[C@H](C[C@H](O)[C@@H](O)C(C)(C)O)C1=C2CC[C@H]3[C@@]4(C)CCC(=O)C(C)(C)[C@@H]4CC[C@]3(C)[C@@]2(C)CC1
14 | Not Active | – | – | C[C@H](C[C@H](O)[C@@H](O)C(C)(C)O)C1=C2C[C@H](O)[C@H]3[C@@]4(C)CCC(=O)C(C)(C)[C@@H]4CC[C@]3(C)[C@@]2(C)C=C1
15 | Not Active | – | – | CC(=O)O[C@@H]([C@@H](O)C[C@@H](C)C1=C2C[C@H](O)[C@H]3[C@@]4(C)CCC(=O)C(C)(C)[C@@H]4CC[C@]3(C)[C@@]2(C)CC1)C(C)(C)O
16 | Not Active | – | – | CC(=O)O[C@H]1C[C@@H](C)C2=C3C[C@H](O)[C@H]4[C@@]5(C)CCC(=O)C(C)(C)[C@@H]5CC[C@]4(C)[C@@]3(C)C[C@@H]2O[C@@H]1C(C)(C)O
17 | Not Active | 4.58 | – | C[C@H](CC[C@H](O)C(C)(C)O)[C@H]1CC[C@@]2(C)C1=CC=C1[C@]2(C)CC[C@H]2C(C)(C)C(=O)CC[C@]12C
18 | Not Active | 24.3 | – | CC(=O)O[C@H]([C@@H]1C[C@@H](C)C2=C3C=C[C@H]4[C@@]5(C)CCC(=O)C(C)(C)[C@@H]5CC[C@]4(C)[C@@]3(C)C[C@@H]2O1)C(C)(C)O
19 | Not Active | 4.72 | – | CCOC(C)(C)[C@H](O)[C@@H](O)C[C@@H](C)C1=C2C[C@H](O)[C@H]3[C@@]4(C)CCC(=O)C(C)(C)[C@@H]4CC[C@]3(C)[C@@]2(C)CC1
20 | Not Active | – | – | CC(=O)O[C@@H](C[C@@H](C)C1=C2C=C[C@H]3[C@@]4(C)CCC(=O)C(C)(C)[C@@H]4CC[C@]3(C)[C@@]2(C)CC1=O)[C@H](O)C(C)(C)O
21 | Not Active | 2.02 | 1.76 | CC1=CC(=O)C[C@@]2(C)[C@H]1CC[C@@]1(C)[C@H]2[C@@H](O)CC2=C([C@H](C)C[C@H](O)[C@@H](O)C(C)(C)O)CC[C@@]21C
